# Data published in patent publication US12077503B2, “Substituted cyclic amides and their use as herbicides” (FMC CORPORATION, priority 2015, dated 2024).
# Columns and labels:
# Format in all cases: in vivo
# Kochia (Kochia scoparia) [1] = experiment: Test A preemergence
# In short: (§1)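 Visual injury, scored on a 0–100 scale relative to untreated controls, was recorded about 10 d after application. Treatments were a preemergence soil spray over planted seeds or a postemergence spray on plants at the one- to two-leaf stage, 2 to 10 cm tall, all in loam soil–sand blend in the greenhouse.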
# [2] = test system: barnyardgrass (Echinochloa crus-galli); experiment: Test A preemergence
# In short: as §1
# [3] = test system: giant foxtail (Setaria faberii); experiment: Test A preemergence
# In short: as §1
# [4] = test system: pigweed (Amaranthus retroflexus); experiment: Test A preemergence
# [5] = test system: ragweed (common ragweed, Ambrosia elatior); experiment: Test A preemergence
# In short: as §1
# [6] = test system: ryegrass, Italian (Italian ryegrass, Lolium multiflorum); experiment: Test A preemergence
# In short: as §1
# [7] = test system: Galium (catchweed bedstraw, Galium aparine); experiment: Test A postemergence
# In short: as §1
# Kochia (Kochia scoparia) [8] = experiment: Test A postemergence
# In short: as §1
# [9] = test system: barnyardgrass (Echinochloa crus-galli); experiment: Test A postemergence
# In short: as §1
# [10] = test system: blackgrass (Alopecurus myosuroides); experiment: Test A postemergence
# In short: as §1
# corn (Zea mays) = experiment: Test A postemergence
# In short: as §1
# [11] = test system: giant foxtail (Setaria faberii); experiment: Test A postemergence
# In short: as §1
# [12] = test system: pigweed (Amaranthus retroflexus); experiment: Test A postemergence
# In short: as §1
# [13] = test system: ragweed (common ragweed, Ambrosia elatior); experiment: Test A postemergence
# In short: as §1
# [14] = test system: ryegrass, Italian (Italian ryegrass, Lolium multiflorum); experiment: Test A postemergence
# In short: as §1
# [15] = test system: wheat (Triticum aestivum); experiment: Test A postemergence
# In short: as §1
# [16] = test system: barnyardgrass (Echinochloa crus-galli); experiment: Test B flooded paddy test; details: for Plant response rating, Barnyardgrass: Flood, 0 to 100 scale where 0 is no effect and 100 is complete control, 13 to 15 d
# In short: (§2)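 Compound goes directly into floodwater once pots are flooded 3 cm above soil, targeting plants at two leaves; the water depth is then held for the test duration. Plants sit 13–15 d in a greenhouse and are rated visually, 100 denoting complete control.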
# [17] = test system: ducksalad (Heteranthera limosa); experiment: Test B flooded paddy test; details: for Plant response rating, Ducksalad: Flood, 0 to 100 scale where 0 is no effect and 100 is complete control, 13 to 15 d
# In short: as §2
# rice (Oryra sativa) = experiment: Test B flooded paddy test; details: for Plant response rating, Rice: Flood, 0 to 100 scale where 0 is no effect and 100 is complete control, 13 to 15 d
# In short: as §2
# [18] = test system: sedge, umbrella (small-flower umbrella sedge, Cyperus difformis); experiment: Test B flooded paddy test; details: for Plant response rating, Sedge, Umbrella: Flood, 0 to 100 scale where 0 is no effect and 100 is complete control, 13 to 15 d
# In short: as §2
# [19] = Galium, post-emergence, 240 h, read-out: Plant response rating, Galium
# [20] = Bassia scoparia, post-emergence, 240 h, read-out: Plant response rating, Kochia
# [21] = Echinochloa crus-galli, post-emergence, 240 h, read-out: Plant response rating, Barnyardgrass
# [22] = Alopecurus myosuroides, post-emergence, 240 h, read-out: Plant response rating, Blackgrass
# [23] = Zea mays, post-emergence, 240 h, read-out: Plant response rating, Corn
# [24] = Setaria faberi, post-emergence, 240 h, read-out: Plant response rating, Foxtail, Giant
# [25] = Amaranthus retroflexus, post-emergence, 240 h, read-out: Plant response rating, Pigweed
# [26] = Ambrosia artemisiifolia, post-emergence, 240 h, read-out: Plant response rating, Ragweed
# [27] = Lolium multiflorum, post-emergence, 240 h, read-out: Plant response rating, Ryegrass, Italian
# [28] = Triticum aestivum, post-emergence, 240 h, read-out: Plant response rating, Wheat
# [29] = 125 g ai/ha, preemergence, visual rating after approx. 10 d, 0 to 100 scale where 0 is no effect and 100 is complete control
# [30] = 500 g ai/ha, preemergence, 0 to 100 scale, 0 = no effect, 100 = complete control
# [31] = 125 g ai/ha, postemergence, visual injury after approximately 10 d, 0 to 100 scale (0 no effect, 100 complete control)
# [32] = 500 g ai/ha, postemergence, visual injury, 0 to 100 scale (0 no effect, 100 complete control), approx. 10 d
# [33] = 125 g ai/ha, Preemergence, visual injury after approximately 10 d, 0 to 100 scale where 0 is no effect and 100 is complete control
# [34] = Preemergence, 500 g ai/ha, visual injury approx. 10 d
# [35] = 125 g ai/ha, postemergence, visual rating after approx. 10 d, 0 to 100 scale (0 no effect, 100 complete control)
# [36] = Postemergence, 500 g ai/ha, 0 to 100 scale where 0 is no effect and 100 is complete control
compound,measurement,setting,value
COc1ccc([C@H]2CN(C)C(=O)[C@@H]2C(=O)Nc2ccccc2SC)cc1F [Compound 1022],pest or weed control at 500 g/ha,"Kochia (Kochia scoparia) [1]; Bassia scoparia, pre-emergence, 240 h, read-out: Kochia plant response rating",80%
same,pest or weed control at 125 g/ha,"Kochia (Kochia scoparia) [1]; Bassia scoparia, pre-emergence, 240 h, read-out: Kochia plant response rating (0 to 100 scale, 0 is no effect, 100 is complete control)",70%
same,pest or weed control at 500 g/ha,"[2]; Echinochloa crus-galli, pre-emergence, 240 h, read-out: Barnyardgrass plant response rating",100%
same,pest or weed control at 125 g/ha,"[2]; Echinochloa crus-galli, pre-emergence, 240 h, read-out: Barnyardgrass plant response rating (0 to 100 scale, 0 is no effect, 100 is complete control)",60%
same,pest or weed control at 500 g/ha,"[3]; Setaria faberi, pre-emergence, 240 h, read-out: Foxtail, Giant plant response rating",100%
same,pest or weed control at 125 g/ha,"[3]; Setaria faberi, pre-emergence, 240 h, read-out: Foxtail, Giant plant response rating (0 to 100 scale, 0 is no effect, 100 is complete control)",100%
same,pest or weed control at 500 g/ha,"[4]; Amaranthus retroflexus, pre-emergence, 240 h, read-out: Pigweed plant response rating",70%
same,pest or weed control at 125 g/ha,"[4]; Amaranthus retroflexus, pre-emergence, 240 h, read-out: Pigweed plant response rating (0 to 100 scale, 0 is no effect, 100 is complete control)",30%
same,pest or weed control at 500 g/ha,"[5]; Ambrosia artemisiifolia, pre-emergence, 240 h, read-out: Ragweed plant response rating",0%
same,pest or weed control at 125 g/ha,"[5]; Ambrosia artemisiifolia, pre-emergence, 240 h, read-out: Ragweed plant response rating (0 to 100 scale, 0 is no effect, 100 is complete control)",0%
same,pest or weed control at 500 g/ha,"[6]; Lolium multiflorum, pre-emergence, 240 h, read-out: Ryegrass, Italian plant response rating",50%
same,pest or weed control at 125 g/ha,"[6]; Lolium multiflorum, pre-emergence, 240 h, read-out: Ryegrass, Italian plant response rating (0 to 100 scale, 0 is no effect, 100 is complete control)",0%
same,pest or weed control at 125 g/ha,[7]; [19],30%
same,pest or weed control at 500 g/ha,[7]; [19],50%
same,pest or weed control at 125 g/ha,Kochia (Kochia scoparia) [8]; [20],30%
same,pest or weed control at 500 g/ha,Kochia (Kochia scoparia) [8]; [20],60%
same,pest or weed control at 125 g/ha,[9]; [21],60%
same,pest or weed control at 500 g/ha,[9]; [21],100%
same,pest or weed control at 125 g/ha,[10]; [22],0%
same,pest or weed control at 500 g/ha,[10]; [22],0%
same,plant injury at 125 g/ha,corn (Zea mays); [23],0%
same,plant injury at 500 g/ha,corn (Zea mays); [23],20%
same,pest or weed control at 125 g/ha,[11]; [24],50%
same,pest or weed control at 500 g/ha,[11]; [24],70%
same,pest or weed control at 125 g/ha,[12]; [25],0%
same,pest or weed control at 500 g/ha,[12]; [25],0%
same,pest or weed control at 125 g/ha,[13]; [26],0%
same,pest or weed control at 500 g/ha,[13]; [26],0%
same,pest or weed control at 125 g/ha,[14]; [27],0%
same,pest or weed control at 500 g/ha,[14]; [27],30%
same,plant injury at 125 g/ha,[15]; [28],0%
same,plant injury at 500 g/ha,[15]; [28],30%
same,pest or weed control at 250 g/ha,"[16]; Echinochloa crus-galli, read-out: Barnyardgrass plant response rating",0%
same,pest or weed control at 250 g/ha,"[17]; Heteranthera limosa, read-out: Ducksalad plant response rating",75%
same,pest or weed control at 250 g/ha,"rice (Oryra sativa); Oryza sativa, read-out: Rice plant response rating",0%
same,pest or weed control at 250 g/ha,"[18]; Cyperus difformis, read-out: Sedge, Umbrella plant response rating",0%
COC(=O)c1ccccc1NC(=O)C1C(=O)NCC1c1cccc(C(F)(F)F)c1 (racemic) [Compound 705],"Plant response rating, Kochia",Kochia (Kochia scoparia) [1]; [29],0
same,"Plant response rating, Kochia",Kochia (Kochia scoparia) [1]; [30],0
same,"Plant response rating, Barnyardgrass",[2]; [29],0
same,"Plant response rating, Barnyardgrass",[2]; [30],0
same,"Plant response rating, Foxtail, Giant",[3]; [29],0
same,"Plant response rating, Foxtail, Giant",[3]; [30],0
same,"Plant response rating, Pigweed",[4]; [29],0
same,"Plant response rating, Pigweed",[4]; [30],0
same,"Plant response rating, Ragweed",[5]; [29],0
same,"Plant response rating, Ragweed",[5]; [30],0
same,"Plant response rating, Ryegrass, Italian",[6]; [29],0
same,"Plant response rating, Ryegrass, Italian",[6]; [30],0
same,"Plant response rating, Galium",[7]; [31],0
same,"Plant response rating, Galium",[7]; [32],0
same,"Plant response rating, Kochia",Kochia (Kochia scoparia) [8]; [31],0
same,"Plant response rating, Kochia",Kochia (Kochia scoparia) [8]; [32],0
same,"Plant response rating, Barnyardgrass",[9]; [31],0
same,"Plant response rating, Barnyardgrass",[9]; [32],0
same,"Plant response rating, Blackgrass",[10]; [31],0
same,"Plant response rating, Blackgrass",[10]; [32],0
same,"Plant response rating, Corn",corn (Zea mays); [31],0
same,"Plant response rating, Corn",corn (Zea mays); [32],0
same,"Plant response rating, Foxtail, Giant",[11]; [31],0
same,"Plant response rating, Foxtail, Giant",[11]; [32],0
same,"Plant response rating, Pigweed",[12]; [31],0
same,"Plant response rating, Pigweed",[12]; [32],0
same,"Plant response rating, Ragweed",[13]; [31],0
same,"Plant response rating, Ragweed",[13]; [32],0
same,"Plant response rating, Ryegrass, Italian",[14]; [31],0
same,"Plant response rating, Ryegrass, Italian",[14]; [32],0
same,"Plant response rating, Wheat",[15]; [31],0
same,"Plant response rating, Wheat",[15]; [32],0
same,"Plant response rating, Barnyardgrass",[16]; 500 g ai/ha,0
same,"Plant response rating, Ducksalad",[17]; 500 g ai/ha,0
same,"Plant response rating, Rice",rice (Oryra sativa); 500 g ai/ha,0
same,"Plant response rating, Sedge, Umbrella",[18]; 500 g ai/ha,0
CC(C)Oc1cccc(C2CNC(=O)C2C(=O)Nc2cccc(F)c2F)c1 (centres unmarked) [Compound 553],"Plant response rating, Kochia",Kochia (Kochia scoparia) [1]; [33],60
same,"Kochia plant response rating (0 to 100 scale, 0 is no effect, 100 is complete control)",Kochia (Kochia scoparia) [1]; [34],80
same,"Plant response rating, Barnyardgrass",[2]; [33],90
same,"Barnyardgrass plant response rating (0 to 100 scale, 0 is no effect, 100 is complete control)",[2]; [34],90
same,"Plant response rating, Foxtail, Giant",[3]; [33],90
same,"Foxtail, Giant plant response rating (0 to 100 scale, 0 is no effect, 100 is complete control)",[3]; [34],90
same,"Plant response rating, Pigweed",[4]; [33],30
same,"Pigweed plant response rating (0 to 100 scale, 0 is no effect, 100 is complete control)",[4]; [34],40
same,"Plant response rating, Ragweed",[5]; [33],40
same,"Plant response rating, Ryegrass, Italian",[6]; [33],70
same,"Ryegrass, Italian plant response rating (0 to 100 scale, 0 is no effect, 100 is complete control)",[6]; [34],70
same,"Plant response rating, Galium",[7]; [35],60
same,"Plant response rating, Galium",[7]; [36],60
same,"Plant response rating, Kochia",Kochia (Kochia scoparia) [8]; [35],30
same,"Plant response rating, Kochia",Kochia (Kochia scoparia) [8]; [36],50
same,"Plant response rating, Barnyardgrass",[9]; [35],90
same,"Plant response rating, Barnyardgrass",[9]; [36],90
same,"Plant response rating, Blackgrass",[10]; [35],50
same,"Plant response rating, Blackgrass",[10]; [36],60
same,"Plant response rating, Corn",corn (Zea mays); [35],80
same,"Plant response rating, Corn",corn (Zea mays); [36],90
same,"Plant response rating, Foxtail, Giant",[11]; [35],70
same,"Plant response rating, Foxtail, Giant",[11]; [36],90
same,"Plant response rating, Pigweed",[12]; [35],20
same,"Plant response rating, Pigweed",[12]; [36],30
same,"Plant response rating, Ragweed",[13]; [35],30
same,"Plant response rating, Ragweed",[13]; [36],40
same,"Plant response rating, Ryegrass, Italian",[14]; [35],60
same,"Plant response rating, Ryegrass, Italian",[14]; [36],70
same,"Plant response rating, Wheat",[15]; [35],40
same,"Plant response rating, Wheat",[15]; [36],60
same,"Plant response rating, Barnyardgrass",[16]; 250 g ai/ha,65
same,"Plant response rating, Ducksalad",[17]; 250 g ai/ha,100
same,"Plant response rating, Rice",rice (Oryra sativa); 250 g ai/ha,10
same,"Plant response rating, Sedge, Umbrella",[18]; 250 g ai/ha,0
